Experimental data taken from patent US9302998B2, “Aryl triazole compounds with antitumoural activity” (SIGMA-TAU RESEARCH SWITZERLAND S.A., priority 2010, dated 2016).
Values belong to the compound of their own block, whether it stands above or below them.

Experiments:
U87MG glioblastoma = experiment: Sulphorodamine B test at single concentration, U87MG; format: cell-based; conditions: Homo sapiens, U-87 MG; 500 nM, 72 h
Protocol: (§1) The antiproliferative activity of novel Hsp90 inhibitors was also evaluated on various cancerous cell lines by means of the sulphorodamine B test (i.e., NCI-H460 non-small cell lung carcinoma, A431 epidermoid, A2780 ovarian, MDA-MB436 triple-negative breast, U87MG glioblastoma, A498 renal, HCT116 colon, MeWo melanoma, MiaPaCa2 pancreas, HeLa cervix uteri, NB4 promyelocytic leukemia). NCI-H460, A431, MDA-MB436, A2780, A498, HeLa, NB4 tumour cells were grown in RPMI 1640 containing 10% fetal bovine serum (i.e., FBS from GIBCO), L-glutamine, and 50 μg/ml gentamycin sulfate.
(§2) MeWo and U87-MG cells were cultured in Eagle's Minimum Essential Medium (i.e., EMEM) containing 10% FBS, L-glutamine, 1 mM sodium pyruvate, 0.1 mM non-essential amino acids, 1.5 g/l sodium bicarbonate, and 50 μg/ml gentamycin sulphate.
(§3) All cell lines were maintained in a 37° C. incubator with saturated humidity and an atmosphere containing 95% air and 5% CO2, and were sub-cultured every 2-3 days. Tumour cells were seeded in 96-well tissue culture plates at approximately 10% confluence and were allowed to attach and recover for 24 h.
(§4) Varying concentrations of the drugs were then added to each well to calculate their IC50 value (the concentration which inhibits the 50% of cell survival). The plates were incubated at 37° C. for 72 h. At the end of the treatment, the plates were washed by remotion of the supernatant and addition of PBS 3 times. 200 μl PBS and 50 μl of cold 80% trichloroacetic acid (TCA) were added. The plates were incubated on ice for at least 1 h. TCA was removed, the plates were washed 3 times by immersion in distilled-water and dried on paper and at 40° C. for […]. Then 200 μl of 0.4% sulphorodamine B in 1% acetic acid were added. The plates were incubated at room temperature for 30 min. Sulphorodamine B was removed, the plates were washed by immersion in 1% acetic acid for 3 times, then they were dried on paper and at 40° C. for 5 min. Then, 200 μl Tris 10 mM were added, the plates were kept under stirring for 20 min. The cell survival was determined as optical density by a Multiskan […] at 540 nm. The amount of cells killed was calculated as the percentage decrease in sulphorodamine B binding compared with control cultures.
(§5) The other cell lines were screened against one single concentration of the various inhibitors (i.e., 500 nM), all experiments being made in octuplicate, following the protocol described at example 35. Since NB4 cell line was grown in suspension, a further step of centrifugation (i.e., 1600 g for 10 min) was added after the 72 hour incubation period.

HeLa cervix uteri = experiment: Sulphorodamine B test at single concentration, HeLa; format: cell-based; conditions: Homo sapiens, 500 nM, 72 h
Protocol: as §1, §3, §4, §5

MeWo melanoma = experiment: Sulphorodamine B test at single concentration, MeWo; format: cell-based; conditions: Homo sapiens, 500 nM, 72 h
Protocol: as §1, §2, §3, §4, §5

MiaPaCa2 pancreas = experiment: Sulphorodamine B test at single concentration, MiaPaCa2; format: cell-based; conditions: Homo sapiens, MIA PaCa-2; 500 nM, 72 h
Protocol: as §1
MiaPaCa2 cells were cultured in DMEM medium containing 10% FBS, L-glutamine, and 50 μg/ml gentamycin sulfate.
as §3, §4, §5

[1] = test system: NCI-H460 non-small cell lung carcinoma; experiment: Cytotoxicity assay, sulphorodamine B test, NCI-H460; format: cell-based; conditions: for IC50: Homo sapiens, NCI-H460, 72 h, sulphorodamine B
Protocol: as §1, §3, §4

A431 epidermoid = experiment: Sulphorodamine B test at single concentration, A431; format: cell-based; conditions: Homo sapiens, A-431; 500 nM, 72 h
Protocol: as §1, §3, §4, §5

[2] = test system: NB4 promyelocytic leukemia; experiment: Sulphorodamine B test at single concentration, NB4; format: cell-based; conditions: 500 nM, 72 h, suspension cells
Protocol: as §1, §3, §4, §5

A2780 ovarian = experiment: Sulphorodamine B test at single concentration, A2780; format: cell-based; conditions: Homo sapiens, 500 nM, 72 h
Protocol: as §1, §3, §4, §5

HCT116 colon = experiment: Sulphorodamine B test at single concentration, HCT116; format: cell-based; conditions: Homo sapiens, HCT-116; 500 nM, 72 h
Protocol: as §1
HCT116 cells were cultured in McCoy's medium containing 10% FBS, L-glutamine, and 50 μg/ml gentamycin sulfate.
as §3, §4, §5

[3] = test system: MDA-MB436 triple-negative breast; experiment: Sulphorodamine B test at single concentration, MDA-MB436; format: cell-based; conditions: Homo sapiens, MDA-MB-436; 500 nM, 72 h
Protocol: as §1, §3, §4, §5

Hsp90 = target: T1, Hsp90 (Homo sapiens, UniProt P07900); experiment: Fluorescence Polarization (FP) binding, GM-BODIPY displacement from Hsp90; conditions: GM-BODIPY tracer, 4° C. for 4 hours
T1 construct: purchased Stressgen SPP-776
Protocol: GM-BODIPY (PerkinElmer, CUSN60342000MG) was previously dissolved in DMSO to obtain 10 mM stock solutions and kept at −20° C. until use.
Hsp90 (Stressgen, SPP-776), was previously dissolved in assay buffer (HFB) to form 2.2 μM stock solutions and kept at −80° C. until use.
The compounds were previously dissolved in DMSO to obtain stock solutions and kept at −20° C. The day of experiment, the compounds were prepared by serial dilutions in assay buffer (HFB) containing 20 mM HEPES (K) pH 7.3, 50 mM KCl, 5 mM MgCl2, 20 mM Na2MoO4 and 0.01% NP40. Before each use, 0.1 mg/ml Bovine Gamma globulin and 2 mM DTT were freshly added.
Fluorescence Polarization (FP) was performed in Opti-Plate™-96F well plates (Perkin Elmer, Zaventem, Belgium) using a plate reader (Wallac Envision 2101 multilabel reader, Perkin Elmer, Zaventem, Belgium). To evaluate the binding affinity of the molecules, 50 μl of the GM-BODIPY solution (100 nM) were added to 125 nM of Hsp90 in the presence of 5 μl of the test compounds at increasing concentrations. The plate was mixed on a shaker at 4° C. for 4 hours, and the FP values in mP (millipolarization units) were recorded. The IC50 values were calculated as the inhibitor concentration where 50% of the tracer is displaced; each data point is the result of the average of triplicate wells, and was determined from a plot using nonlinear least-squares analysis. Curve fitting was performed using
Prism GraphPad software program (GraphPad software, Inc., San Diego, Calif.).

A498 renal = experiment: Sulphorodamine B test at single concentration, A498; format: cell-based; conditions: Homo sapiens, 500 nM, 72 h
Protocol: as §1, §3, §4, §5

IC50 (Hsp90): < 50 nM
Structure (SMILES): CCNC(=O)c1nnn(-c2cc(C(C)C)c(O)cc2O)c1-c1ccc(CNCC2CCCCC2)cc1 [Example 15, 5-{4-[(cyclohexylmethyl-amino)-methyl]-phenyl}-1-(2,4-dihydroxy-5-isopropyl-phenyl)-1H-[1,2,3]triazole-4-carboxylic acid ethylamide]
inhibition at 0.5 µM (U87MG glioblastoma): ≥ 50%
inhibition at 0.5 µM (HeLa cervix uteri): ≥ 50%
inhibition at 0.5 µM (MeWo melanoma): ≥ 50%
inhibition at 0.5 µM (MiaPaCa2 pancreas): ≥ 50%
IC50 [1]: < 50 nM
inhibition at 0.5 µM (A431 epidermoid): ≥ 50%
inhibition at 0.5 µM [2]: ≥ 50%
inhibition at 0.5 µM (A2780 ovarian): ≥ 50%
inhibition at 0.5 µM (HCT116 colon): ≥ 50%
inhibition at 0.5 µM [3]: ≥ 50%
inhibition at 0.5 µM (A498 renal): ≥ 50%

IC50 (Hsp90): < 50 nM
Structure (SMILES): CCNC(=O)c1nnn(-c2cc(C(C)C)c(O)cc2O)c1-c1ccc(CNCCN(CC)CC)cc1 [Example 17, 5-{4-[(2-diethylamino-ethylamino)-methyl]-phenyl}-1-(2,4-dihydroxy-5-isopropyl-phenyl)-1H-[1,2,3]triazole-4-carboxylic acid ethylamide]
inhibition at 0.5 µM (U87MG glioblastoma): ≥ 50%
inhibition at 0.5 µM (HeLa cervix uteri): 30 to 50%
inhibition at 0.5 µM (MeWo melanoma): ≥ 50%
inhibition at 0.5 µM (MiaPaCa2 pancreas): ≥ 50%
IC50 [1]: 100 to 500 nM
inhibition at 0.5 µM (A431 epidermoid): ≥ 50%
inhibition at 0.5 µM [2]: ≥ 50%
inhibition at 0.5 µM (A2780 ovarian): ≥ 50%
inhibition at 0.5 µM (HCT116 colon): 30 to 50%
inhibition at 0.5 µM [3]: ≥ 50%
inhibition at 0.5 µM (A498 renal): 30 to 50%

IC50 (Hsp90): < 50 nM
Structure (SMILES): CCNC(=O)c1nnn(-c2cc(C(C)C)c(O)cc2O)c1-c1ccc(CN2CC[C@H](N(C)C)C2)cc1 [Example 20, 1-(2,4-dihydroxy-5-isopropyl-phenyl)-5-[4-((S)-3-dimethylamino-pyrrolidin-1-ylmethyl)-phenyl]-1H-[1,2,3]triazole-4-carboxylic acid ethylamide]
inhibition at 0.5 µM (U87MG glioblastoma): ≥ 50%
inhibition at 0.5 µM (HeLa cervix uteri): ≥ 50%
inhibition at 0.5 µM (MeWo melanoma): ≥ 50%
inhibition at 0.5 µM (MiaPaCa2 pancreas): ≥ 50%
IC50 [1]: < 50 nM
inhibition at 0.5 µM (A431 epidermoid): ≥ 50%
inhibition at 0.5 µM [2]: ≥ 50%
inhibition at 0.5 µM (A2780 ovarian): ≥ 50%
inhibition at 0.5 µM (HCT116 colon): ≥ 50%
inhibition at 0.5 µM [3]: ≥ 50%
inhibition at 0.5 µM (A498 renal): 30 to 50%

IC50 (Hsp90): < 50 nM
Structure (SMILES): CCCCCCNC(=O)c1nnn(-c2cc(C(C)C)c(O)cc2O)c1-c1ccc(CN2CCOCC2)cc1 [Example 27, 1-(2,4-dihydroxy-5-isopropyl-phenyl)-5-(4-morpholin-4-ylmethyl-phenyl)-1H-[1,2,3]triazole-4-carboxylic acid hexylamide]
inhibition at 0.5 µM (U87MG glioblastoma): ≥ 50%
inhibition at 0.5 µM (HeLa cervix uteri): ≥ 50%
inhibition at 0.5 µM (MeWo melanoma): ≥ 50%
inhibition at 0.5 µM (MiaPaCa2 pancreas): ≥ 50%
IC50 [1]: < 50 nM
inhibition at 0.5 µM (A431 epidermoid): ≥ 50%
inhibition at 0.5 µM [2]: ≥ 50%
inhibition at 0.5 µM (A2780 ovarian): ≥ 50%
inhibition at 0.5 µM (HCT116 colon): ≥ 50%
inhibition at 0.5 µM [3]: ≥ 50%
inhibition at 0.5 µM (A498 renal): ≥ 50%

IC50 (Hsp90): < 50 nM
Structure (SMILES): CC(C)c1cc(-n2nnc(C(=O)NC3CCCC3)c2-c2ccc(CN3CCOCC3)cc2)c(O)cc1O [Example 28, 1-(2,4-dihydroxy-5-isopropyl-phenyl)-5-(4-morpholin-4-ylmethyl-phenyl)-1H-[1,2,3]triazole-4-carboxylic acid cyclopentylamide]
inhibition at 0.5 µM (U87MG glioblastoma): ≥ 50%
inhibition at 0.5 µM (HeLa cervix uteri): ≥ 50%
inhibition at 0.5 µM (MeWo melanoma): ≥ 50%
inhibition at 0.5 µM (MiaPaCa2 pancreas): ≥ 50%
IC50 [1]: < 50 nM
inhibition at 0.5 µM (A431 epidermoid): ≥ 50%
inhibition at 0.5 µM [2]: ≥ 50%
inhibition at 0.5 µM (A2780 ovarian): ≥ 50%
inhibition at 0.5 µM (HCT116 colon): ≥ 50%
inhibition at 0.5 µM [3]: ≥ 50%
inhibition at 0.5 µM (A498 renal): ≥ 50%

IC50 (Hsp90): 50 to 100 nM
Structure (SMILES): CC(C)c1cc(-n2nnc(C(=O)NC3CCCCC3)c2-c2ccc(CN3CCOCC3)cc2)c(O)cc1O [Example 29, 1-(2,4-dihydroxy-5-isopropyl-phenyl)-5-(4-morpholin-4-ylmethyl-phenyl)-1H-[1,2,3]triazole-4-carboxylic acid cyclohexylamide]
inhibition at 0.5 µM (U87MG glioblastoma): ≥ 50%
inhibition at 0.5 µM (HeLa cervix uteri): ≥ 50%
inhibition at 0.5 µM (MeWo melanoma): ≥ 50%
inhibition at 0.5 µM (MiaPaCa2 pancreas): ≥ 50%
IC50 [1]: < 50 nM
inhibition at 0.5 µM (A431 epidermoid): ≥ 50%
inhibition at 0.5 µM [2]: ≥ 50%
inhibition at 0.5 µM (A2780 ovarian): ≥ 50%
inhibition at 0.5 µM (HCT116 colon): ≥ 50%
inhibition at 0.5 µM [3]: ≥ 50%
inhibition at 0.5 µM (A498 renal): ≥ 50%

IC50 (Hsp90): > 500 nM
Structure (SMILES): CCOC(=O)c1nnn(-c2cc(Cl)c(O)cc2O)c1-c1ccc(F)cc1 [Example 32, 1-(5-chloro-2,4-dihydroxy-phenyl)-5-(4-fluoro-phenyl)-1H-[1,2,3]triazole-4-carboxylic acid ethyl ester, reference compound]
inhibition at 0.5 µM (U87MG glioblastoma): < 30%
inhibition at 0.5 µM (HeLa cervix uteri): < 30%
inhibition at 0.5 µM (MeWo melanoma): < 30%
inhibition at 0.5 µM (MiaPaCa2 pancreas): < 30%
cytotoxic activity against NCI-H460 NSCLC (in words) [1]: totally deprived of any interesting biological activity
IC50 [1]: > 1000 nM
inhibition at 0.5 µM (A431 epidermoid): < 30%
inhibition at 0.5 µM [2]: 30 to 50%
inhibition at 0.5 µM (A2780 ovarian): < 30%
inhibition at 0.5 µM (HCT116 colon): < 30%
inhibition at 0.5 µM [3]: < 30%
inhibition at 0.5 µM (A498 renal): < 30%

IC50 (Hsp90): > 500 nM
Structure (SMILES): Oc1cc(O)c(-n2nncc2-c2ccc(F)cc2)cc1Cl [Example 33, 4-chloro-6-[5-(4-fluoro-phenyl)-[1,2,3]triazol-1-yl]-benzene-1,3-diol, reference compound]
inhibition at 0.5 µM (U87MG glioblastoma): < 30%
inhibition at 0.5 µM (HeLa cervix uteri): < 30%
inhibition at 0.5 µM (MeWo melanoma): < 30%
inhibition at 0.5 µM (MiaPaCa2 pancreas): < 30%
cytotoxic activity against NCI-H460 NSCLC (in words) [1]: totally deprived of any interesting biological activity
IC50 [1]: > 1000 nM
inhibition at 0.5 µM (A431 epidermoid): < 30%
inhibition at 0.5 µM [2]: < 30%
inhibition at 0.5 µM (A2780 ovarian): < 30%
inhibition at 0.5 µM (HCT116 colon): < 30%
inhibition at 0.5 µM [3]: < 30%
inhibition at 0.5 µM (A498 renal): < 30%
